We go through 22 compounds from patent publication US20260191858A1, “COMBINATION THERAPIES” (Kallyope, Inc., priority 2022, published 2026).

The target in one assay is T1, human GPR40 (Homo sapiens, UniProt O14842).
T1 construct: host or cells: CHO-K1
Kind of assay: Inositol phosphate accumulation assay in CHO-K1 cells expressing human GPR40. The class given is cell-based. As to conditions: CHO-K1 human GPR40, IP1 HTRF, 90 min. On the procedure:
CHO-K1 cells expressing human GPR40 were purchased from DiscoverX (95-1005C2). HEK293 cells expressing mouse FFAR1 were prepared using a mouse FFAR1 carrying plasmid purchased from OriGene Technologies (MR222997). The cells were transfected using Lipofectamine 2000 using manufacturer instructions and stable cell line was established from a single cell using geneticine selection. Assay ready frozen (ARF) cells were prepared and used throughout the study.
The assay was performed in a 384-well plate format using IP1 assay kit from Cis-Bio. ARF cells expressing FFAR1 (mouse and human) were thawed, washed and then plated in the appropriate medium (F12 based medium for CHO hFFAR1 and DMEM based medium for HEK293 mFFAR1—both were supplemented with 10% FBS and penicillin/streptomycin). 20 μL of 3.5×10^5 cells/mL were plated on a Poly D-Lysine coated 384-well white plate. The cells were then incubated for 16 hr at 37° C./5% CO2. After 16 hr the medium was removed and 15 μL of stimulation buffer containing the test compounds was added to the cells. The plates were then incubated for 90 min at 37° C./5% CO2. 5 μL of detection buffer (prepared as described in the IP-one kit) was added to each well and the plates were incubated at RT for 1 hr.
[…] was measured using ClarioSTAR plate reader, calculating the ratio between emissions at 665 nm and 620 nm (HTRF ratio). HTRF ratio for positive (Max) and negative (Min) controls were used to normalize HTRF data and generate values for % activity. EC50 and Max activity values were determined using a standard 4-parameter fit.
(In general: Time-resolved FRET reads energy transfer from a long-lived donor to a nearby acceptor.)

A further assay deals with T2, human GPR119 (hGPR119) (Homo sapiens, UniProt Q8TDV5).
T2 construct: expressed in transfected cells; host or cells: CHO-K1
T2 sequence (Q8TDV5 1-335): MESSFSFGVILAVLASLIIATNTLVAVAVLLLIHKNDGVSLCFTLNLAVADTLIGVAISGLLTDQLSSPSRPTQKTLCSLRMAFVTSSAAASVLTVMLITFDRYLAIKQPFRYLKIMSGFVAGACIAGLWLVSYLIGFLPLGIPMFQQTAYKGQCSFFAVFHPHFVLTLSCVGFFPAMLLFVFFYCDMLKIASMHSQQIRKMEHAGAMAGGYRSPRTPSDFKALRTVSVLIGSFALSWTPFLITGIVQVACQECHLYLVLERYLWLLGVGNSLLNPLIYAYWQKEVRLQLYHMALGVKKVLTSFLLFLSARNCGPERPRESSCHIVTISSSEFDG
The assay is described as follows: cAMP accumulation assay in CHO-K1 cells stably expressing hGPR119. The class given is cell-based. The note with it: cAMP HTRF, 60 minutes. In outline:
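Assay-ready frozen CHO-K1 cells stably expressing hGPR119, ~10,000 cells/well, were exposed to compounds for 60 min at 37 °C in stimulation buffer with Tween 80. cAMP was measured by HTRF (665/620 nm ratio) and normalized to Max/Min controls as % activity. EC50 and Max activity came from a 4-parameter fit.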
For orientation: Changes in cAMP serve as a functional read-out for many G protein-coupled receptors.

T1 sequence (O14842 whole entry): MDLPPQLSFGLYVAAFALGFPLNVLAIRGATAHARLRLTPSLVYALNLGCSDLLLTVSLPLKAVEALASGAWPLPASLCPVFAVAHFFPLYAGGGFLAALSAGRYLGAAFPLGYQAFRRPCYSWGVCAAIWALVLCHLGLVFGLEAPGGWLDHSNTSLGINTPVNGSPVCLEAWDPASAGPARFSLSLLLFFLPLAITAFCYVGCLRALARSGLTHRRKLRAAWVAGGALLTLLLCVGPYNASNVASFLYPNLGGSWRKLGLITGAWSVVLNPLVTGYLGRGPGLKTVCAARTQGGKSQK

As a reminder, the EC50 is the concentration needed to bring the measured effect to its halfway point. A lower EC50 goes with higher potency in that assay. Consider `COc1ccc(F)c([C@H]2CC[C@H](COc3cccc([C@H](C[P@@](C)(=O)O)C4CC4)c3)CC2)c1` (single isomer, unassigned) [Compound B3], for which the EC50 at human GPR40 was at most 0.05 µM.
In turn, `COc1ccc(F)c([C@H]2CC[C@H](COc3cccc([C@@H](C[P@@](C)(=O)O)C4CC4)c3)CC2)c1` (single isomer, unassigned) [Compound B4] gave an EC50 on human GPR40 of 0.05 to 0.25 µM.
The compound `COCc1cnc(N2CCC(CCCOc3cc(F)c(CC(=O)N4CC(CNC[C@H](O)[C@@H](O)[C@H](O)[C@H](O)CO)C4)c(F)c3)CC2)nc1` [Compound A56] had an EC50 on human GPR119 (hGPR119) of 0.1 to 1 µM.
Still for that read-out and setting: for `CCOc1cnc(N2CCC(CCCOc3ccc(CC(=O)N4CC(CC(=O)NCC(O)(CO)CO)C4)c(F)c3)CC2)nc1` [Compound A57, N-[2,3-dihydroxy-2-(hydroxymethyl)propyl]-2-[1-[2-[4-[3-[1-(5-ethoxypyrimidin-2-yl)-4-piperidyl]propoxy]-2-fluoro-phenyl]acetyl]azetidin-3-yl]acetamide] the value was at most 0.1 µM; for `CCOc1cnc(N2CCC(CCCOc3cc(F)c(CC(=O)N4CC(CNC[C@H](O)[C@@H](O)[C@H](O)[C@H](O)CO)C4)c(F)c3)CC2)nc1` [Compound A58, 2-[4-[3-[1-(5-ethoxypyrimidin-2-yl)-4-piperidyl]propoxy]-2,6-difluoro-phenyl]-1-[3-[[[(2S,3R,4R,5R)-2,3,4,5,6-pentahydroxyhexyl]amino]methyl]azetidin-1-yl]ethanone], at most 0.1 µM; for `O=C(Cc1ccc(OCCCC2CCN(c3ncc(Cl)cn3)CC2)cc1F)N1CC(CCNC[C@H](O)[C@H](O)[C@H](O)CO)C1` [Compound A59, 2-[4-[3-[1-(5-chloropyrimidin-2-yl)-4-piperidyl]propoxy]-2-fluoro-phenyl]-1-[3-[2-[[(2S,3S,4R)-2,3,4,5-tetrahydroxypentyl]amino]ethyl]azetidin-1-yl]ethanone], at most 0.1 µM.
On human GPR119 (hGPR119), `O=C(Cc1ccc(OCCCC2CCN(c3ncc(Cl)cn3)CC2)cc1F)N1CC(CNC[C@H](O)[C@H](O)[C@H](O)CO)C1` [Compound A60, 2-[4-[3-[1-(5-chloropyrimidin-2-yl)-4-piperidyl]propoxy]-2-fluoro-phenyl]-1-[3-[[[(2S,3S,4R)-2,3,4,5-tetrahydroxypentyl]amino]methyl]azetidin-1-yl]ethanone] yielded an EC50 of at most 0.1 µM.
For `O=C(Cc1ccc(OCCCC2CCN(c3ncc(Cl)cn3)CC2)cc1F)N1CC(CNC[C@H](O)[C@@H](O)[C@H](O)CO)C1` [Compound A61, 2-[4-[3-[1-(5-chloropyrimidin-2-yl)-4-piperidyl]propoxy]-2-fluoro-phenyl]-1-[3-[[[(2S,3R,4R)-2,3,4,5-tetrahydroxypentyl]amino]methyl]azetidin-1-yl]ethanone], the EC50 at human GPR119 (hGPR119) is at most 0.1 µM.
With `O=C(Cc1ccc(OCCCC2CCN(c3ncc(Cl)cn3)CC2)cc1F)N1CC(CNC[C@@H](O)[C@H](O)[C@H](O)CO)C1` [Compound A62, 2-[4-[3-[1-(5-chloropyrimidin-2-yl)-4-piperidyl]propoxy]-2-fluoro-phenyl]-1-[3-[[[(2R,3S,4R)-2,3,4,5-tetrahydroxypentyl]amino]methyl]azetidin-1-yl]ethanone], on human GPR119 (hGPR119), the half-maximal effective concentration (EC50) was at most 0.1 µM.
Take `O=C(NCCS(=O)(=O)O)C1CN(C(=O)Cc2ccc(OCCCC3CCN(c4ncc(Cl)cn4)CC3)cc2F)C1` [Compound A63, 2-[[1-[2-[4-[3-[1-(5-chloropyrimidin-2-yl)-4-piperidyl]propoxy]-2-fluoro-phenyl]acetyl]azetidine-3-carbonyl]amino]ethanesulfonic acid]: the EC50 on human GPR119 (hGPR119) was 0.1 to 1 µM.
As for `O=C(NCCCS(=O)(=O)O)C1CN(C(=O)Cc2ccc(OCCCC3CCN(c4ncc(Cl)cn4)CC3)cc2F)C1` [Compound A64, 3-[[1-[2-[4-[3-[1-(5-chloropyrimidin-2-yl)-4-piperidyl]propoxy]-2-fluoro-phenyl]acetyl]azetidine-3-carbonyl]amino]propane-1-sulfonic acid], the EC50 at human GPR119 (hGPR119) was at most 0.1 µM.
The compound `O=C(NCCCCCS(=O)(=O)O)C1CN(C(=O)Cc2ccc(OCCCC3CCN(c4ncc(Cl)cn4)CC3)cc2F)C1` [Compound A66, 5-[[1-[2-[4-[3-[1-(5-chloropyrimidin-2-yl)-4-piperidyl]propoxy]-2-fluoro-phenyl]acetyl]azetidine-3-carbonyl]amino]pentane-1-sulfonic acid] registered an EC50 at human GPR119 (hGPR119) of 0.1 to 1 µM.
On the same count and under the same terms, for `O=C(NCCCCCCS(=O)(=O)O)C1CN(C(=O)Cc2ccc(OCCCC3CCN(c4ncc(Cl)cn4)CC3)cc2F)C1` [Compound A67, 6-[[1-[2-[4-[3-[1-(5-chloropyrimidin-2-yl)-4-piperidyl]propoxy]-2-fluoro-phenyl]acetyl]azetidine-3-carbonyl]amino]hexane-1-sulfonic acid] the value was 0.1 to 1 µM; for `O=C(CC1CN(C(=O)Cc2ccc(OCCCC3CCN(c4ncc(Cl)cn4)CC3)cc2F)C1)NCCS(=O)(=O)O` [Compound A68, 2-[[2-[1-[2-[4-[3-[1-(5-chloropyrimidin-2-yl)-4-piperidyl]propoxy]-2-fluoro-phenyl]acetyl]azetidin-3-yl]acetyl]amino]ethanesulfonic acid], 0.1 to 1 µM.
The compound `O=C(CC1CN(C(=O)Cc2ccc(OCCCC3CCN(c4ncc(Cl)cn4)CC3)cc2F)C1)NCCCS(=O)(=O)O` [Compound A69, 3-[[2-[1-[2-[4-[3-[1-(5-chloropyrimidin-2-yl)-4-piperidyl]propoxy]-2-fluoro-phenyl]acetyl]azetidin-3-yl]acetyl]amino]propane-1-sulfonic acid] registered a 50% effective concentration (EC50) on human GPR119 (hGPR119) of 0.1 to 1 µM.
Same read-out and setting: in the case of `O=C(CC1CN(C(=O)Cc2ccc(OCCCC3CCN(c4ncc(Cl)cn4)CC3)cc2F)C1)NCCCCS(=O)(=O)O` [Compound A70, 4-[[2-[1-[2-[4-[3-[1-(5-chloropyrimidin-2-yl)-4-piperidyl]propoxy]-2-fluoro-phenyl]acetyl]azetidin-3-yl]acetyl]amino]butane-1-sulfonic acid] it was 0.1 to 1 µM; in that of `O=C(CC1(O)CN(C(=O)Cc2ccc(OCCCC3CCN(c4ncc(Cl)cn4)CC3)cc2F)C1)NCC(CO)(CO)CO` [Compound A71, 2-[1-[2-[4-[3-[1-(5-chloropyrimidin-2-yl)-4-piperidyl]propoxy]-2-fluoro-phenyl]acetyl]-3-hydroxy-azetidin-3-yl]-N-[3-hydroxy-2,2-bis(hydroxymethyl)propyl]acetamide], at most 0.1 µM; in that of `O=C(Cc1ccc(OCCCC2CCN(c3ncc(Cl)cn3)CC2)cc1F)N1CC(O)(CNC[C@H](O)[C@H](O)[C@H](O)CO)C1` [Compound A72, 2-[4-[3-[1-(5-chloropyrimidin-2-yl)-4-piperidyl]propoxy]-2-fluoro-phenyl]-1-[3-hydroxy-3-[[[(2S,3S,4R)-2,3,4,5-tetrahydroxypentyl]amino]methyl]azetidin-1-yl]ethanone], at most 0.1 µM.
On to `COc1ccc(F)c([C@H]2CC[C@H](COc3cc([C@@H](CP(C)(=O)O)C4CC4)ccn3)CC2)c1` [Compound B5, ((S)-2-cyclopropyl-2-(2-(((trans)-4-(2-fluoro-5-methoxyphenyl)cyclohexyl)methoxy)pyridin-4-yl)ethyl)(methyl)phosphinic acid], for which the EC50 on human GPR40 is at most 0.05 µM.
As for `COc1ccc(CCCC(C)(C)C)c(N2CCC(COc3cccc([C@@H](CP(C)(=O)O)C4CC4)c3)CC2)c1` [Compound B6, ((S)-2-cyclopropyl-2-(3-((1-(2-(4,4-dimethylpentyl)-5-methoxyphenyl)piperidin-4-yl)methoxy)phenyl)ethyl)(methyl)phosphinic acid], the concentration for a half-maximal effect (EC50) at human GPR40 was at most 0.05 µM.
`COc1ccc(CCCC(C)(C)C)c(N2CCC(COc3cc([C@@H](CP(C)(=O)O)C4CC4)ccn3)CC2)c1` [Compound B7, ((S)-2-cyclopropyl-2-(2-((1-(2-(4,4-dimethylpentyl)-5-methoxyphenyl)piperidin-4-yl)methoxy)pyridin-4-yl)ethyl)(methyl)phosphinic acid] gave an EC50 on human GPR40 of at most 0.05 µM.
`COc1ccc(CCCC(C)(C)C)c(N2CCC(COc3cc([C@@H](C)CP(C)(=O)O)ccn3)CC2)c1` [Compound B8, ((R)-2-(2-((1-(2-(4,4-dimethylpentyl)-5-methoxyphenyl)piperidin-4-yl)methoxy)pyridin-4-yl)propyl)(methyl)phosphinic acid] returned an EC50 at human GPR40 of at most 0.05 µM.
